# Source: patent US8026243B2, “[4,5′]Bipyrimidinyl-6,4′-diamine derivatives as protein kinase inhibitors” (Novartis AG, priority 2006, dated 2011)
# Target: T1, Ba/F3-TEL-FGFR3 cells (Homo sapiens, UniProt P22607)
# T1 construct: fused on or other part: The N-terminal oligomerising part of TEL (ETV6) is fused before the intracellular kinase part of FGFR3; P41212 (Transcription factor ETV6)
# Assay: FGFR3 cellular assay: proliferation of transformed Ba/F3-TEL-FGFR3 cells (AlamarBlue)
# Assay type: cell-based
# Settings: 48 hours incubation, class symbols
# Method in brief: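 Ba/F3-TEL-FGFR3 cells (5000/well) in RPMI 1640 with 10% FBS, exposed to twelve-point 1:3 compound dilutions for 48 h. Proliferation read by AlamarBlue (10% final, 4 h at 37 °C), fluorescence Ex530/Em580; IC50 from linear regression of percent inhibition.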
# T1 sequence (P22607 whole entry, change not shown, the tested form may be a part): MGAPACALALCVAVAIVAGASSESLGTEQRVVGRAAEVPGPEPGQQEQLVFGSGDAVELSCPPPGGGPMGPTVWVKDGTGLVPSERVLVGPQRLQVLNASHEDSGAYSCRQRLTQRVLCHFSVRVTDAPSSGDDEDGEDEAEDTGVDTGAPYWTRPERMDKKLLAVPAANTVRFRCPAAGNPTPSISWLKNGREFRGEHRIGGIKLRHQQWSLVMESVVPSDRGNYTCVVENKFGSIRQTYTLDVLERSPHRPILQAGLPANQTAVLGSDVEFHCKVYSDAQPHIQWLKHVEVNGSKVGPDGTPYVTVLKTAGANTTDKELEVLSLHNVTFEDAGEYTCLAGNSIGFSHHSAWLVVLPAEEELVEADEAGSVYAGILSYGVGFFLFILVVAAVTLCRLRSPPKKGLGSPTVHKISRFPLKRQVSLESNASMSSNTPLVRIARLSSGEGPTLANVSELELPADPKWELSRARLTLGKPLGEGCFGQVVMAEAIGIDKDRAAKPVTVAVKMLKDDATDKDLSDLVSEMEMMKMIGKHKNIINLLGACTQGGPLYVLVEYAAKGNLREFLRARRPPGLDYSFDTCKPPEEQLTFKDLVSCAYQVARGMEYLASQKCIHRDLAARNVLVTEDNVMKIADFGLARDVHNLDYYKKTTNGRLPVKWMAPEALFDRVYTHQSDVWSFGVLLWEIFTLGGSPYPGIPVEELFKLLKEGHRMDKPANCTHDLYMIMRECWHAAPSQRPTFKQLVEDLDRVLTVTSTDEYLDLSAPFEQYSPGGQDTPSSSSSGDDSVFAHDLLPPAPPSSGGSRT
row,GI50 [nM],SMILES
1,250 to 500,"CCNC(=O)c1cc(OC)c(Cl)c(Nc2ncncc2-c2cc(Nc3ccc(CN4CCN(C)CC4)cn3)ncn2)c1Cl [Compound 34, 2,4-Dichloro-N-ethyl-5-methoxy-3-{6-[5-(4-methyl-piperazin-1-ylmethyl)-pyridin-2-ylamino]-[4,5′]bipyrimidinyl-4′-ylamino}-benzamide]"
2,< 100,"COc1cc(Nc2ncncc2-c2cc(Nc3ccc(C(C)O)cn3)ncn2)c(F)c(OC)c1 (stereo not drawn) [Compound 83, 1-{6-[4′-(2-Fluoro-3,5-dimethoxy-phenylamino)-[4,5′]bipyrimidinyl-6-ylamino]-pyridin-3-yl}-ethanol]"
3,< 100,"COc1cc(Nc2ncncc2-c2cc(Nc3cc(CN4CCOCC4)ccn3)ncn2)c(F)c(OC)c1 [Compound 71, N4′-(2-Fluoro-3,5-dimethoxy-phenyl)-N6-(4-morpholin-4-ylmethyl-pyridin-2-yl)-[4,5′]bipyrimidinyl-6,4′-diamine]"
4,< 100,"CCN1CCN(c2ccc(Nc3cc(-c4cncnc4Nc4c(Cl)c(OC)cc(OC)c4Br)ncn3)nc2)CC1 [Compound 47, N4′-(2-Bromo-6-chloro-3,5-dimethoxy-phenyl)-N6-[5-(4-ethyl-piperazin-1-yl)-pyridin-2-yl]-[4,5′]bipyrimidinyl-6,4′-diamine]"
5,< 100,"COc1cc(OC)c(Cl)c(Nc2ncncc2-c2cc(Nc3ccc(C(C)O)cn3)ncn2)c1Cl (stereo not drawn) [Compound 82, 1-{6-[4′-(2,6-Dichloro-3,5-dimethoxy-phenylamino)-[4,5′]bipyrimidinyl-6-ylamino]-pyridin-3-yl}-ethanol]"
6,< 100,"COc1cc(OC)c(Cl)c(Nc2ncncc2-c2cc(Nc3cccc(C(C)O)c3)ncn2)c1F (stereo not drawn) [Compound 77, 1-{3-[4′-(2-Chloro-6-fluoro-3,5-dimethoxy-phenylamino)-[4,5′]bipyrimidinyl-6-yl-amino]-phenyl}-ethanol]"
7,< 100,"COc1ccc(F)c(Nc2nccnc2-c2cc(Nc3ccc(CN4CCOCC4)cn3)ncn2)c1F [Compound 104, {6-[3-(2,6-Difluoro-3-methoxy-phenylamino)-pyrazin-2-yl]-pyrimidin-4-yl}-N-(5-(morpholin-4-ylmethyl)-pyridin-2-yl)-amine]"
8,< 100,"COc1cc(OC)c(Cl)c(Nc2ncncc2-c2cc(Nc3ccc(CN4CCN(C(C)=O)CC4)cn3)ncn2)c1F [Compound 61, 1-(4-{6-[4′-(2-Chloro-6-fluoro-3,5-dimethoxy-phenylamino)-[4,5′]bipyrimidinyl-6-ylamino]-pyridin-3-ylmethyl}-piperazin-1-yl)-ethanone]"
9,< 100,"CCNC(=O)c1cc(OC)c(Cl)c(Nc2ncncc2-c2cc(Nc3ccc(N4CCN(CC)CC4)cn3)ncn2)c1Cl [Compound 42, 2,4-Dichloro-N-ethyl-3-{6-[5-(4-ethyl-piperazin-1-yl)-pyridin-2-ylamino]-[4,5′]bipyrimidinyl-4′-ylamino}-5-methoxy-benzamide]"
